Like-named read-outs stand apart in the source and are kept apart here.
Legend:
[1] = system: C6 Cells from glioblastomas of rats; test: Cytotoxicity on the C6 cell line (quantitative neutral red assay)
[2] = system: astrocyte primary cultures from the cortex of a newborn rat; test: Cytotoxicity on the non modified astrocytes, so called healthy cells (quantitative assay); conditions: second day after addition, 50 μM to 24 nM
[3] = system: spontaneously converted astrocytes collected from the cortex of a newborn rat; test: Cytotoxicity on the spontaneously converted astrocytes (qualitative assay, microscopic observation); type: cell-based; conditions: microscopic observation each day for four days, 50 μM to 400 nM
Excerpt: a) Spontaneously converted astrocytes collected from the cortex of a newborn rat (see Bochelen D., Langley K., Adamczyk M., Kupfberg, Hor F., Vincendon G., Mersel M., J. Neurosci. Res., 2000, 62, 99-111), that is to say from normal glial cells maintained in culture and that became able to divide to infinity. These cells are not able to induce tumors after implantation in the rat but did avoid the cell cycle regulation. This cell line was maintained in culture in culture flasks in the presence of 5 mL of culture medium MH5 comprising 70% of MEM and 30% of a Hanks solution. This medium was supplemented with 5% of foetal calf serum. The culture medium was changed every three days. Cells were incubated at 37° C. in an air/CO2 atmosphere (95/5). For the experiments, a replanting was effected after removal of the culture medium, cells were treated for 4 to 5 minutes with trypsine (0.1%). The cell suspension was then placed in 5 mL of fresh medium, 50 μL of this solution were collected to perform the cell counting. […]
These assays conducted on compounds 3.28, 3.8, 3.5. […] The effect was evaluated by simple microscopic observation of the culture plates. […] The evaluated compounds did present an activity at a very low concentration. An activity could be observed after 72 h to 96 h (days 3 and 4) for the whole evaluated compounds.

[4] = system: astrocyte primary cultures from the cortex of a newborn rat
[5] = C6 cell line, high concentration

For “6-(1,2-dihydroxy-ethyl)-2,2-dimethyl-2-oxo-2-diethoxymethyl-tetrahydro-6λ*5*-[1,3]dioxolo[4,5-d][1,2]oxaphosphinan-3-tosyl [Compound 3.6]”, the IC50 ([1]; C6 cell line, neutral red cell viability, measures conducted on day 2 or 3) was 1500 nM.

`O=[N+]([O-])c1ccc([P@]2(=O)O[C@H](COCc3ccccc3)[C@@H](OCc3ccccc3)[C@H](OCc3ccccc3)C2O)cc1` (single isomer, unassigned) [Compound 3.52, 4,5-bis-benzyloxy-6-benzyloxymethyl-2-(p-nitro)phenyl-2-oxo-2λ^5-[1,2]oxaphosphinan-3-ol] was tested, and the IC50 ([1]; Rattus norvegicus, C6, 48 h) was 100 to 5000 nM and the “cytotoxicity on healthy cells (cell viability)” value (from here on “cytotoxicity on healthy cells”) [2] was “absence of cytotoxicity”.

`CC1(C)O[C@H]2[C@@H]([C@H]3COC(C)(C)O3)O[P@@](=O)(c3ccccc3)[C@@H](Oc3ccc([N+](=O)[O-])cc3)[C@H]2O1` [Compound 3.9a, 4-(2,2-Dimethyl-[1,3]dioxolan-4-yl)-2,2-dimethyl-2-oxo-2-phenyl-tetrahydro-6λ*5*-[1,3]dioxolo[4,5-d][1,2]oxaphosphinan-3-oxy-p-nitrophenyl] was tested, and the IC50 ([1]; Rattus norvegicus, C6, 48 h) was 400 to 1000 nM.

With `CCOC(OCC)P1(=O)O[C@H]([C@H]2COC(C)(C)O2)[C@@H]2OC(C)(C)O[C@@H]2C1O` (some centres unmarked) [Compound 3.19a, 4-(2,2-Dimethyl-[1,3]dioxolan-4-yl)-2,2-dimethyl-2-oxo-2-diethoxymethyl-tetrahydro-6λ*5*-[1,3]dioxolo[4,5-d][1,2]oxaphosphinan-3-ol] the “cytotoxic activity on spontaneously converted astrocytes” value [3] was “cytotoxic activity”.

With `CC1(C)O[C@H]2[C@@H]([C@H]3COC(C)(C)O3)O[P@@](=O)(c3ccccc3)[C@@H](NCc3ccccc3)[C@H]2O1` [Compound 3.28, 4-(2,2-Dimethyl-[1,3]dioxolan-4-yl)-2,2-dimethyl-2-oxo-2-phenyl-tetrahydro-6λ*5*-[1,3]dioxolo[4,5-d][1,2]oxaphosphinan-3-aminobenzyl] the “cytotoxic activity on spontaneously converted astrocytes” value [3] was “cytotoxic activity”, the IC50 ([1]; Rattus norvegicus, C6, 48 h) was 800 to 5000 nM and the “cytotoxicity on healthy cells” value [2] was “absence of cytotoxicity”.

In the case of `Cc1ccc(N[C@H]2[C@H]3OC(C)(C)O[C@H]3[C@@H]([C@H]3COC(C)(C)O3)O[P@@]2(=O)c2ccccc2)cc1` [Compound 3.30a, 4-(2,2-Dimethyl-[1,3]dioxolan-4-yl)-2,2-dimethyl-2-oxo-2-phenyl-tetrahydro-6λ*5*-[1,3]dioxolo[4,5-d][1,2]oxaphosphinan-3-aminotoluyl], the “mortality of C6 cells when highly concentrated” value (from here on “mortality of C6 cells”) [1, 5] is reported as “total mortality”, the IC50 ([1]; Rattus norvegicus, C6, 48 h) is reported as 500 to 5000 nM and the “cytotoxicity on healthy cells” value [2] is reported as “did not show any significative effect”.

In the case of `Cc1ccc(N[C@H]2[C@H]3OC(C)(C)O[C@H]3[C@@H]([C@H]3COC(C)(C)O3)O[P@@]2(=O)c2ccccc2)cc1` [Compound 3.30b, 4-(2,2-Dimethyl-[1,3]dioxolan-4-yl)-2,2-dimethyl-2-oxo-2-phenyl-tetrahydro-6λ*5*-[1,3]dioxolo[4,5-d][1,2]oxaphosphinan-3-aminotoluyl], the “cytotoxicity on healthy cells” value [2] is reported as “absence of cytotoxicity”.

`O=[P@@]1(c2ccccc2)O[C@H](COCc2ccccc2)[C@@H](OCc2ccccc2)[C@H](OCc2ccccc2)C1O` (some centres unmarked) [Compound 3.48a, 4,5-bis-benzyloxy-6-benzyloxymethyl-2-phenyl-2-oxo-2λ^5-[1,2]oxaphosphinan-3-ol] was tested, and the IC50 ([1]; Rattus norvegicus, C6, 48 h) was 1000 to 2000 nM.

For `COc1ccc([P@]2(=O)O[C@H](COCc3ccccc3)[C@@H](OCc3ccccc3)[C@H](OCc3ccccc3)C2O)cc1` (some centres unmarked) [Compound 3.51a, 4,5-bis-benzyloxy-6-benzyloxymethyl-2-(p-methoxy)phenyl-2-oxo-2λ^5-[1,2]oxaphosphinan-3-ol], the “mortality of C6 cells” value [1, 5] was “total mortality”, the IC50 ([1]; Rattus norvegicus, C6, 48 h) was 100 to 5000 nM and the “cytotoxicity on healthy cells” value [2] was “did not show any significative effect”.

In the case of `CC1(C)O[C@H]2[C@@H]([C@H]3COC(C)(C)O3)O[P@@](=O)(c3ccccc3)[C@@H](OC(=N)C(Cl)(Cl)Cl)[C@H]2O1` [Compound 3.57, 4-(2,2-Dimethyl-[1,3]dioxolan-4-yl)-2,2-dimethyl-2-oxo-2-phenyl-tetrahydro-6λ*5*-[1,3]dioxolo[4,5-d][1,2]oxaphosphinan-3-imidate], the “cytotoxicity on healthy cells” value [4] is reported as “did not show any significative effect”, the “cell death of healthy cells” value ([4]; rat) is reported as ≤ 20% and the “mortality of C6 cells” value [1] is reported as “total mortality”. For the same molecule, the IC50 ([1]; Rattus norvegicus, C6, 48 h) was 100 to 5000 nM.
